Experimental data: patent US3975389A, “Caffeine derivatives” (priority 1973, dated 1976)

Assays:
[1] = acute toxicity, guinea-pig; details: in vivo
From the text: (§1) o) compound dissolved in physiological salt solution.
(§2) x) compound suspended in 5% arabic gum.

acute toxicity, mouse = details: in vivo
From the text: as §1, §2

[2] = survival / late mortality of guinea-pigs treated in the broncholitic activity test (48 hours, oral route); details: guinea pig, in vivo, po
[3] = test system: bronchial spasm caused by a broncho-constrictor aerosol of histamine hydrochloride; assay: broncholitic activity in the awake guinea-pig: percentage protection against bronchial spasm caused by histamine hydrochloride aerosol; type: in vivo
[4] = bronchial asthma therapy; known for the comparison compound; cited from earlier work
guinea-pigs = assay: survival / late mortality of guinea-pigs treated in the broncholitic activity test (48 hours, oral route); details: in words; tardy mortality
[5] = strengthening of the andiogenic convulsions test in the mouse; type: in vivo; details: in vivo, ip, intraperitoneal dose of 50 mg/kg, read-out: death of treated animals
From the text: (§3) The undesired action on the central nervous system has been evaluated with the strengthening of the andiogenic convulsions test in the mouse (Werboff et coll., Amer. J. Physiol., 201, 830, 1961). As is well known, the theophilline derivatives potentiate the effects of the acoustic stimulus (motory agitation, clonic and tonic convulsions which may lead to the death of the animals).

[6] = test system: effects of the acoustic stimulus (motory agitation, clonic and tonic convulsions); assay: as above; type: in vivo; details: intraperitoneal dose of 50 mg/kg
From the text: as §3

[7] = ip, dissolved in physiological salt solution
[8] = po, per os, suspended in 5% arabic gum
[9] = i.p. route, 25 mg/kg, after 30' of the administration
[10] = i.p. route, 50 mg/kg, after 30' of the administration
[11] = i.p. route, 75 mg/kg, after 30' of the administration
[12] = oral route, 75 mg/kg, after 60' of the administration
[13] = oral route, 150 mg/kg, after 60' of the administration
[14] = oral route, 300 mg/kg, after 60' of the administration

SMILES | LD50 (acute toxicity, mouse; [7]) | LD50 (acute toxicity, mouse; [8]) | survival at 48 h ([2]; 75 mg/kg) | survival at 48 h ([2]; 150 mg/kg) | survival at 48 h ([2]; 300 mg/kg) | Protection percentage from the spasm caused by histamine [3, 9] | Protection percentage from the spasm caused by histamine [3, 10] | Protection percentage from the spasm caused by histamine [3, 11] | Protection percentage from the spasm caused by histamine [3, 12] | Protection percentage from the spasm caused by histamine [3, 13] | Protection percentage from the spasm caused by histamine [3, 14] | further results
CC(OC(=O)c1cccnc1)c1nc2c(c(=O)n(C)c(=O)n2C)n1C (stereo not drawn) [8-[α-(nicotinoyloxy)-ethyl]-caffeine] | 445 mg/kg | 520 mg/kg | – | – | – | – | – | – | – | – | – | LD50 [1, 7]: 220 mg/kg; LD50 [1, 8]: 440 mg/kg
CC(OC(=O)c1cccnc1)c1nc2c(c(=O)n(C)c(=O)n2C)n1C.Cl (stereo not drawn) [386/770, 8-[α-(nicotinoyloxy)-ethyl]-caffeine monohydrochloride] | – | – | 100% | 100% | 100% | 35% | 38% | 94% | 13% | 26% | 65% | –
Cc1ccnc(C)c1C(=O)OC(C)c1nc2c(c(=O)n(C)c(=O)n2C)n1C (stereo not drawn) [8-[α-(2,4-dimethylnicotinoyloxy)-ethyl]-caffeine] | 320 mg/kg | 500 mg/kg | – | – | – | – | – | – | – | – | – | –
Cc1ccnc(C)c1C(=O)OC(C)c1nc2c(c(=O)n(C)c(=O)n2C)n1C.Cl (stereo not drawn) [386/986, 8-[α-(2,4-dimethylnicotinoyloxy)-ethyl]-caffeine monohydrochloride] | – | – | 100% | 100% | 100% | 22% | 39% | 85% | 39% | 54% | 80% | –
Cn1c(=O)c2[nH]cnc2n(C)c1=O [Aminophilline, reference compound] | – | – | – | – | – | – | 24% | 80% | 31% | 95% | – | undesired secondary effects [4]: excitement caused by caffeine and irritation of the gastric mucous membrane; mortality of guinea-pigs subjected to the broncholitic activity test (guinea-pigs): tardy high mortality; mortality [5]: 50%; strengthening of the effects of the acoustic stimulus [6]: remarkable strengthening of the effects of the acoustic stimulus; Protection percentage from the spasm caused by histamine ([3]; i.p. route, 100 mg/kg, after 30' of the administration): 100%; Protection percentage from the spasm caused by histamine ([3]; i.p. route, 150 mg/kg, after 30' of the administration): 100%; Protection percentage from the spasm caused by histamine ([3]; oral route, 50 mg/kg, after 60' of the administration): 14%; Protection percentage from the spasm caused by histamine ([3]; oral route, 100 mg/kg, after 60' of the administration): 92%
